# Experiments:
# [1] = single doses up to 3000 mcg; cited from earlier work
compound,measurement,setting,value
"Cc1cc(C)n(-c2cccc([C@H](CC(=O)O)CN3CC[C@@H](CCc4ccc5c(n4)NCCC5)C3)c2)n1 [GSK3008348, (S)-3-(3-(3,5-Dimethyl-1 H-pyrazol-1-yl)phenyl)-4-((R)-3-(2-(5,6,7,8-tetrahydro-1,8-naphthyridin-2-yl)ethyl)pyrrolidin-1-yl) butanoic acid]","Diarrhoea, n (%)","1000 mcg nebulised, N=5",0 n (%)
same,"Headache, n (%)","1000 mcg nebulised, N=5",1 (20) n (%)
same,"Number of participants with any AE, n (%)","1000 mcg nebulised, N=5",3 (60) n (%)
same,"Urinary tract infection, n (%)","1000 mcg nebulised, N=5",1 (20) n (%)
same,Intensity and treatment relation of AEs,single nebulised 1000 mcg doses,All AEs were mild in intensity and none were considered treatment related
same,Tolerability in healthy participants,[1],well tolerated

# Reference: publication PMC7099768, “A positron emission tomography imaging study to confirm target engagement in the lungs of patients with idiopathic pulmonary fibrosis following a single dose of a novel inhaled αvβ6 integrin inhibitor” (Respiratory Research, 2020)
